Measurements as given in patent publication US10758536B2, “Method for treating shingles with N-methanocarbathymidine (N-MCT)” (priority 2015, dated 2020).
Entries after “also recorded” stand apart in the source; their conditions may differ.

Assays:
VZV [1] = test: Skin organ culture assay, drug in medium; format: cell-based, varicella-zoster virus
Description: Human foreskin fibroblasts (HFFs) (CCD-1137Sk; American Type Culture Collection), used prior to passage 20 were grown in Eagle minimum essential medium with Earle's salts and L-glutamine (HyClone Laboratories), supplemented with 10% heat-inactivated fetal bovine serum (Benchmark FBS; Gemini Bio Products), penicillin-streptomycin (5000 IU/mL), amphotericin B (250 µg/mL), and nonessential amino acids (all Mediatech). VZV-BAC-Luc (Zhang et al., 2007), derived from the Parental Oka (POka, Accession number: AB097933) strain was propagated in HFFs. To prepare the virus for inoculation, VZV-infected HFFs were trypsinized, then washed and resuspended in TCM, and used immediately for direct injection. Each tissue was injected twice with 30 μL of the cell suspension using a 1 cc syringe fitted with a 27-gauge needle attached to a volumetric stepper (Tridak). The needle was lightly dragged across the tissue approximately 5 times to scarify the surface to increase infection. Tissues were incubated at 37° C. for 3 h to allow the virus to adhere, and then placed individually on NetWells that had contact with 1.0 mL of tissue culture medium. The cell-associated VZV inoculum was titered on MeWo cells (Taylor and Moffat, 2005) and was typically 1.5×10^6 pfu/mL, which is approximately 9×10^4 pfu/tissue.
In skin organ culture, higher concentrations of N-MCT were needed to reduce VZV spread; virus yield was reduced ˜100-fold when [N-MCT] was greater than 10 μg/mL.

VZV [2] = test: SCID-Hu mouse model of VZV replication, oral dose range; format: in vivo, varicella-zoster virus
Description: SCID-hu mice with human skin xenografts were infected intradermally with VZV and treated orally twice daily with vehicle, PFA (positive control), or N-MCT at 5, 10, 20, 25, 50, or 100 mg/kg/day. Virus spread was measured daily by in vivo bioluminescence imaging (IVIS). […] The results were analyzed for statistical significance by ANOVA and Dunnett's post hoc test of multiple comparisons (GraphPad Prism).

VZV [3] = test: Skin organ culture Assays 4 and 5: topical ointment vehicles; format: cell-based, varicella-zoster virus
Text: Another objective of the invention was to test N-MCT at 0.5% in a variety of topical formulations in the SOC assay. The purpose was to determine the optimal topical formulation for N-MCT in full-thickness human skin. Human fetal skin was purchased from ABR and delivered by overnight courier on wet ice. The tissue was cleaned, disinfected in betadine and 70% ethanol, then cut into pieces approximately 1-cm^2. Each piece was inoculated with VZV-BAC-Luc strain that expresses firefly luciferase. Approximately 3 hours after inoculation, the pieces of skin were placed in NetWells above tissue culture medium and incubated overnight. The next day (Day 1) each piece of skin was soaked in D-luciferin for 45 min, and then scanned in the IVIS-50 instrument to measure Total Flux, which is a correlate of VZV pfu. The negative control group was not treated with drug or vehicle. The positive control drug treatment began on Day 1 by placing the skin, in NetWells, over medium containing 0.1 μg/mL N-MCT (see Table 5 below). The ointments were formulated with N-MCT by adding dry powder to the vehicle on a glass slab, then mixing thoroughly with a metal spatula. The ointments were warmed to 37° C. before spreading on the skin pieces with a Dacron swab. […] The virus yield in each piece of skin was calculated by dividing the Total Flux measured on Day 5 by Day […]

VZV [4] = test: Delayed N-MCT treatment in SCID-Hu mice; format: in vivo, varicella-zoster virus; conditions: 50 mg/kg p.o. BID; treatment delayed 3 or 7 days after VZV infection
Description: Statistical analysis: Data were analyzed using Student's t test or one-way ANOVA and Dunnett's Multiple Comparison post hoc tests. Calculations were made using GraphPad Prism 5.02 for Windows (GraphPad Software, San Diego, Calif., www.graphpad.com). A p<0.05 was considered statistically significant.

**Q.** `Cc1cn([C@]23C[C@H](O)[C@@H](CO)[C@@H]2C3)c(=O)[nH]c1=O` [N-MCT, N-methanocarbathymidine] was tested. Which “VZV growth in skin organ culture” value (VZV [1]; FIG. 2) did it give?
**A.** The value was “prevents VZV growth”.

**Q.** What about the virus yield reduction (VZV [1]; [N-MCT] greater than 10 μg/mL, skin organ culture) of the same compound?
**A.** Its virus yield reduction is about 100 fold.

**Q.** And the “concentrations at which N-MCT prevents VZV spread in human skin explants” value (VZV [1]; human skin explants, drug in medium)?
**A.** Its value is over 10 µg/mL.

**Q.** What about the “VZV spread in mouse model, effectiveness” value (VZV [2]; 5-100 mg/kg/day p.o. BID) of the same compound?
**A.** The value was “prevents VZV spread; also recorded: effective”.

**Q.** And the “VZV yield and growth rates compared to vehicle” value (VZV [2]; all doses, N-MCT 5-100 mg/kg/day BID, p<0.0001, ANOVA and Dunnett)?
**A.** Its value is “significantly reduced”.

**Q.** And the “doses more effective than control antiviral compounds (PAA, PFA, cidofovir)” value (VZV [2]; mouse model of virus replication)?
**A.** Its value is over 10 mg/kg/day.

**Q.** And the optimal dose (VZV [2]; p.o. BID, SCID-Hu mice)?
**A.** Its optimal dose is “approximately 20 mg/kg/day”.

**Q.** And the “effectiveness as topical formulation in SOC model” value (VZV [3]; 0.5% N-MCT in ointments, daily, scan Day 5)?
**A.** Its value is “highly effective”.

**Q.** And the “virus yield on Day 10 after treatment stopped, fold less” value (VZV [3]; no treatment after Day 5, groups treated with N-MCT)?
**A.** Its value is 100 fold.

**Q.** And the “effectiveness in vivo when treatment is delayed” value (VZV [4])?
**A.** The value was “effective; also recorded: can be delayed up to one week after infection”.
